Like-named read-outs stand apart in the source and are kept apart here. Blank lines part the entries; values can stand above or below the molecule they belong to.
How the values were obtained:
LNCaP-tumor xenograft = experiment: Biodistribution in LNCaP-tumor xenograft bearing CB-17 SCID mice; format: in vivo
Experimental: All animal experiments were carried out in accordance with the general animal welfare regulations in Germany (Deutsches Tierschutzgesetz, approval #55.2-1-54-2532-71-13). For the tumor model, LNCaP cells (approx. 10^7 cells) were suspended in serum-free DMEM-F12 medium and Matrigel (1/1; v/v) (BD Biosciences, Germany) and inoculated onto the right shoulder of male, 6 to 8 weeks old CB-17 SCID mice (Charles River Laboratories, Sulzfeld, Germany). Animals were used after the tumor size reached 4 to 8 mm in diameter for experiments.

LNCaP cells = experiment: Internalization into LNCaP cells, relative cellular uptake to ([^125I]I-BA)KuE; format: cell-based; conditions: c = 1.0 nM ^177Lu-labeled inhibitor, 37° C., 60 min, corrected for non-specific binding (10 μM 2-PMPA), mean ± SD (n = 3)
Experimental: PSMA-positive LNCAP cells (300265; Cell Lines Service GmbH) were cultivated in Dulbecco modified Eagle medium/Nutrition Mixture F-12 (1/1) (DMEM-F12, Biochrom) supplemented with fetal calf serum (FCS) (10%, Biochrom) and kept at 37° C. in a humidified CO2 atmosphere (5%). One day (24 h±2 h) prior to all experiments with LNCaP cells, the cultivated cells were harvested using a mixture of trypsin/ethylendiaminetetraacetate (0.05%/0.02%) and PBS and centrifuged. After centrifugation, the supernatant was disposed and the cell pellet resuspended in culture medium. Afterwards, cells were counted with a hemocytometer (Neubauer) and seeded in 24-well plates.
Subsequent to the removal of the culture medium, the cells were washed once with DMEM-F12-solution (500 μL, 5% BSA) and left to equilibrate for at least 15 min at 37° C. in DMEM-F12-solution (200 μL, 5% BSA). Afterwards, each well was treated with either DMEM-F12-solution (25 μL, 5% BSA) or 2-PMPA-solution (25 μL, 100 μm) for blockade. […] The experiment was terminated by placing the 24-well plate on ice for 3 min and the consecutive removal of the medium. Each well was rinsed with HBSS (250 μL) and the fractions from these first two steps combined, representing the amount of free radioligand. Removal of surface bound activity was accomplished by incubation of the cells with ice-cold 2-PMPA-solution (250 μL, 10 μm in PBS) for 5 min and subsequent rinsing with ice-cold PBS (250 μL). The internalized activity was determined through incubation of the cells in NaOH (250 μL, 1.0 m) and the combination with the fraction of the subsequent washing step with again NaOH (250 μL, 1.0 m). Each experiment (control and blockade) was performed in triplicate for each time point. Free, surface bound and internalized activity was quantified in a γ-counter.

HSA = target: T1, HSA (Homo sapiens, UniProt P02768); experiment: HSA binding on Chiralpak HSA column; format: in vitro ADME
T1 construct: purchased Daicel Chemical Industries / Chiral Technologies Europe (Illkirch, France)
Experimental: HSA binding experiments were performed as previously described. […] For each run, 10 μL of the solution containing the inhibitor was injected into the RP-HPLC system and the retention time measured. […] Non-linear regression was established with OriginPro 2016G.

[1] = Lipophilicity, logP in n-octanol/PBS of radiolabeled PSMA inhibitors; format: physicochemical; conditions: pH 7.4
Experimental: The radiolabeled PSMA inhibitor (0.5 to 1.0 MBq) dissolved in PBS (500 μL, pH=7.4), was added to n-octanol (500 μL) in a reaction vial (1.5 mL), which was rigorously vortexed for 3 min (n=6). For quantitative phase separation, the mixture was centrifuged at 6,000 g for 5 min (Biofuge 15, Heraus Sepatech, Osterode, Germany). The activity from samples of each phase (100 μL) were measured in a γ-counter to obtain the log P(o/w) value.

[2] = male, CB-17 SCID, mouse, in vivo, 24 h

T1 sequence (P02768 25-609): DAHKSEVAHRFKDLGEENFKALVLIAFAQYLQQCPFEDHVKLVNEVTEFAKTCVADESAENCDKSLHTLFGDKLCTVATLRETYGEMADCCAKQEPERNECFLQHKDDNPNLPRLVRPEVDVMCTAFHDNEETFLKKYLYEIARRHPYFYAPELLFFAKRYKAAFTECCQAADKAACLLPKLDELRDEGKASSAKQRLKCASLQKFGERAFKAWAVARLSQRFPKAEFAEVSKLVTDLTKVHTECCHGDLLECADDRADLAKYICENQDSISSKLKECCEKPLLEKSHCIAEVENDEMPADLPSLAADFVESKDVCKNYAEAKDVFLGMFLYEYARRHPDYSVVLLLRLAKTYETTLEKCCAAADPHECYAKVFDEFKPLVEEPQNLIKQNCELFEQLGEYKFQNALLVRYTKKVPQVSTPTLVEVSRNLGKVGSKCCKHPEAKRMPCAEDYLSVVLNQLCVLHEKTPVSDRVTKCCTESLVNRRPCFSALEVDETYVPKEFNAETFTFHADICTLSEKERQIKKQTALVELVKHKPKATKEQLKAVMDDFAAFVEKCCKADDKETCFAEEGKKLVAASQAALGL

adrenal g. (LNCaP-tumor xenograft; [2]): 0.32 ± 0.15 % ID/g | blood (LNCaP-tumor xenograft; [2]): 0.008 ± 0.001 % ID/g | bone (LNCaP-tumor xenograft; [2]): 0.04 ± 0.02 % ID/g | brain (LNCaP-tumor xenograft; [2]): 0.01 ± 0.002 % ID/g | heart (LNCaP-tumor xenograft; [2]): 0.07 ± 0.01 % ID/g | intestine (LNCaP-tumor xenograft; [2]): 0.27 ± 015 % ID/g | liver (LNCaP-tumor xenograft; [2]): 0.38 ± 0.14 % ID/g | lung (LNCaP-tumor xenograft; [2]): 0.05 ± 0.01 % ID/g | muscle (LNCaP-tumor xenograft; [2]): 0.01 ± 0.001 % ID/g | pancreas (LNCaP-tumor xenograft; [2]): 0.15 ± 0.15 % ID/g | spleen (LNCaP-tumor xenograft; [2]): 0.27 ± 0.15 % ID/g | stomach (LNCaP-tumor xenograft; [2]): 0.20 ± 0.10 % ID/g | t/blood (LNCaP-tumor xenograft; [2]): 1786.3 | t/kidney (LNCaP-tumor xenograft; [2]): 0.4 | t/liver (LNCaP-tumor xenograft; [2]): 37.6 | t/muscle (LNCaP-tumor xenograft; [2]): 1429.0 | tumor (LNCaP-tumor xenograft; mouse, in vivo): highest tumor uptake | HSA (albumin binding) (HSA; human, 0.5 mg/mL): 98.2% | logP [1]: -4.13 ± 0.09
SMILES: O=C(O)CC[C@H](NC(=O)N[C@@H](CCC(=O)NC(CCCNC(=O)C[C@@H](NC(=O)c1cc(C(=O)O)cc(C(=O)O)c1)C(=O)NCCCC[C@@H](NC(=O)[C@@H](Cc1ccc2ccccc2c1)NC(=O)[C@@H](Cc1ccc(O)cc1)NC(=O)[C@H](Cc1ccc2ccccc2c1)NC(=O)CCC(C(=O)O)N1CCN(CC(=O)O)CCN(CC(=O)O)CCN(CC(=O)O)CC1)C(=O)O)C(=O)O)C(=O)O)C(=O)O (some centres unmarked) [PSMA-71, DOTAGA-2-Nal-y-2-nal-k(d[N^5-orn-C^4-EuE]-TMA)]
Internalization (LNCaP cells; listed as [^177Lu]PSMA-71): 206.8±1.7% | Internalization (LNCaP cells; listed as [^nat/177Lu]PSMA-71): 206.8 ± 1.7%

SMILES: Nc1ccc(C[C@H](NC(=O)CCC(C(=O)O)N2CCN(CC(=O)O)CCN(CC(=O)O)CCN(CC(=O)O)CC2)C(=O)N[C@H](Cc2ccc(O)cc2)C(=O)N[C@H](Cc2ccc3ccccc3c2)C(=O)N[C@H](CCCCNC(=O)[C@@H](CC(=O)NCCCC(NC(=O)CC[C@H](NC(=O)N[C@@H](CCC(=O)O)C(=O)O)C(=O)O)C(=O)O)NC(=O)c2ccc([N+](=O)[O-])cc2[N+](=O)[O-])C(=O)O)cc1 (some centres unmarked) [PSMA-61, DOTAGA-F(4-NH2)y-2-nal-k(d[N^5-orn-C^4-EuE]-2,4-DNBA)]
tumor (LNCaP-tumor xenograft; 1 h p.i., ^177Lu-labeled, n = 4): 8.00±0.75 % ID/g | tumor (LNCaP-tumor xenograft; 24 h p.i., ^177Lu-labeled, n = 4): 7.70±1.35 % ID/g | Internalization (LNCaP cells): 359.5 ± 22.6% | HSA (albumin binding) (HSA; after logarithmic plotting and calibration (n = 1)): 63.3% | logP ([1]; distribution coefficient in n-octanol/PBS, radiolabeled inhibitor, mean ± SD (n = 6), read-out: logP): -4.07 ± 0.05
